Results taken from ChEMBL document CHEMBL1122339, “Structure-activity studies of configurationally rigid arylprostaglandins” (1983).
Activity calls are given as the source filed them. No cut-off for these calls is given here.

Legend:
[1] = species: Cavia porcellus; assay: In vitro potency relative to PGE-2 (=100 for uterine stimulant activity in guinea pig at 0.1-10 ug/mL concentration); type: functional
[2] = test system: Mus musculus; assay: In vivo potency relative to PGE-2 =100 for diarrheal activity in conscious mice.; type: functional
[3] = test system: Mus musculus; assay: In vivo potency relative to PGE-2 =100 for diarrheal activity in conscious mice at 0.3-3.0 mg/kg, iv; No effect; type: functional, organism-based

## O=C(O)CCC/C=C\C[C@H]1C(=O)C[C@@H](O)C1/C=C/[C@@H](O)[C@H]1CCc2ccccc2O1 (stereo partly drawn)
[1]
  Relative potency: 66
[2]
  Relative potency: 270

## O=C(O)CCC/C=C\C[C@@H]1C(/C=C/[C@H](O)COc2ccccc2)[C@H](O)C[C@@H]1O (stereo partly drawn)
[1]
  Relative potency: 300

## O=C(O)CCC/C=C\C[C@@H]1C(/C=C/[C@@H](O)[C@@H]2Cc3ccccc3O2)[C@H](O)C[C@@H]1O (stereo partly drawn)
[1]
  Relative potency: 5
[2]
  Relative potency: 190

## O=C(O)CCC/C=C\C[C@H]1C(=O)C[C@@H](O)C1/C=C/[C@@H](O)C1Cc2ccccc2C1 (stereo partly drawn)
[1]
  Relative potency: 6
[2]
  Relative potency: 25

## O=C(O)CCC/C=C\C[C@@H]1C(/C=C/[C@H](O)[C@H]2CCc3ccccc3C2)[C@H](O)C[C@@H]1O (stereo partly drawn)
[1]
  Relative potency: 0.1

## O=C(O)CCC/C=C\C[C@H]1C(=O)C[C@@H](O)C1/C=C/[C@@H](O)[C@H]1CCc2ccccc2C1 (stereo partly drawn)
[1]
  Relative potency: 44
[3]
  Relative potency: inactive

## O=C(O)CCC/C=C\C[C@@H]1C(/C=C/[C@@H](O)COc2ccccc2)[C@H](O)C[C@@H]1O (stereo partly drawn)
[1]
  Relative potency: 15
[2]
  Relative potency: 150

## O=C(O)CCC/C=C\C[C@@H]1C(/C=C/[C@H](O)[C@@H]2CCc3ccccc3O2)[C@H](O)C[C@@H]1O (stereo partly drawn)
[1]
  Relative potency: 0.4

## O=C(O)CCC/C=C\C[C@H]1C(=O)C[C@@H](O)C1/C=C/[C@H](O)[C@H]1CCc2ccccc2C1 (stereo partly drawn)
[1]
  Relative potency: 0.1
[3]
  Relative potency: inactive

## O=C(O)CCC/C=C\C[C@@H]1C(/C=C/[C@@H](O)[C@@H]2CCc3ccccc3C2)[C@H](O)C[C@@H]1O (stereo partly drawn)
[1]
  Relative potency: 18
[2]
  Relative potency: 40

## O=C(O)CCC/C=C\C[C@H]1C(=O)C[C@@H](O)C1/C=C/[C@H](O)[C@@H]1CCc2ccccc2C1 (stereo partly drawn)
[1]
  Relative potency: 2

## O=C(O)CCC/C=C\C[C@H]1C(=O)C[C@@H](O)C1/C=C/[C@H](O)[C@H]1CCc2ccccc2O1 (stereo partly drawn)
[1]
  Relative potency: 3

## O=C(O)CCC/C=C\C[C@@H]1C(/C=C/[C@@H](O)[C@@H]2CCc3ccccc3O2)[C@H](O)C[C@@H]1O (stereo partly drawn)
[1]
  Relative potency: 25
[2]
  Relative potency: 1100

## O=C(O)CCC/C=C\C[C@H]1C(=O)C[C@@H](O)C1/C=C/[C@@H](O)[C@H]1Cc2ccccc2O1 (stereo partly drawn)
[1]
  Relative potency: 0.1
[3]
  Relative potency: inactive

## O=C(O)CCC/C=C\C[C@@H]1C(/C=C/[C@@H](O)[C@H]2CCc3ccccc3C2)[C@H](O)C[C@@H]1O (stereo partly drawn)
[1]
  Relative potency: 2
[2]
  Relative potency: 10

## O=C(O)CCC/C=C\C[C@@H]1C(/C=C/[C@H](O)[C@H]2CCc3ccccc3O2)[C@H](O)C[C@@H]1O (stereo partly drawn)
[1]
  Relative potency: 0.8

## O=C(O)CCC/C=C\C[C@@H]1C(/C=C/[C@@H](O)C2Cc3ccccc3C2)[C@H](O)C[C@@H]1O (stereo partly drawn)
[1]
  Relative potency: 0.3
[2]
  Relative potency: 50

## O=C(O)CCC/C=C\C[C@H]1C(=O)C[C@@H](O)C1/C=C/[C@H](O)C1Cc2ccccc2C1 (stereo partly drawn)
[1]
  Relative potency: 0.3
[3]
  Relative potency: inactive

## O=C(O)CCC/C=C\C[C@H]1C(=O)C[C@@H](O)C1/C=C/[C@@H](O)[C@@H]1CCc2ccccc2C1 (stereo partly drawn)
[1]
  Relative potency: 36
[2]
  Relative potency: 40

## O=C(O)CCC/C=C\C[C@@H]1C(/C=C/[C@H](O)[C@@H]2CCc3ccccc3C2)[C@H](O)C[C@@H]1O (stereo partly drawn)
[1]
  Relative potency: 0.1

## O=C(O)CCC/C=C\C[C@H]1C(=O)C[C@@H](O)C1/C=C/[C@H](O)C1Cc2ccccc2O1 (stereo partly drawn)
[1]
  Relative potency: 19
[2]
  Relative potency: 15

## O=C(O)CCC/C=C\C[C@@H]1C(/C=C/[C@@H](O)[C@H]2CCc3ccccc3O2)[C@H](O)C[C@@H]1O (stereo partly drawn)
[1]
  Relative potency: 19
[2]
  Relative potency: 310

## O=C(O)CCC/C=C\C[C@@H]1C(/C=C/[C@H](O)C2Cc3ccccc3O2)[C@H](O)C[C@@H]1O (stereo partly drawn)
[1]
  Relative potency: 0.3
[2]
  Relative potency: 15

## O=C(O)CCC/C=C\C[C@@H]1C(/C=C/[C@H](O)C2Cc3ccccc3C2)[C@H](O)C[C@@H]1O (stereo partly drawn)
[1]
  Relative potency: 0.07
[3]
  Relative potency: inactive

## O=C(O)CCC/C=C\C[C@@H]1C(/C=C/[C@@H](O)[C@H]2Cc3ccccc3O2)[C@H](O)C[C@@H]1O (stereo partly drawn)
[1]
  Relative potency: 0.2
[2]
  Relative potency: 10

## O=C(O)CCC/C=C\C[C@H]1C(=O)C[C@@H](O)C1/C=C/[C@@H](O)[C@@H]1CCc2ccccc2O1 (stereo partly drawn)
[1]
  Relative potency: 130
[2]
  Relative potency: 730

## O=C(O)CCC/C=C\C[C@H]1C(=O)C[C@@H](O)C1/C=C/[C@H](O)[C@@H]1CCc2ccccc2O1 (stereo partly drawn)
[1]
  Relative potency: 7

## O=C(O)CCC/C=C\C[C@H]1C(=O)C[C@@H](O)C1/C=C/[C@@H](O)[C@@H]1Cc2ccccc2O1 (stereo partly drawn)
[1]
  Relative potency: 18
[2]
  Relative potency: >250
